{"source": "patent US20250092111A1", "about": "“POTENT AND STABLE POLYPEPTIDE ANALOGUES VIA SERINE/THREONINE LIGATION” (UNIVERSITY OF WASHINGTON, priority 2022, published 2025)", "test_system": "mouse model of glucose disposal", "test": "Glucose tolerance test (GTT) in vivo", "conditions": "standard glucose tolerance test, data not shown", "description": "Given the promising activation and stability data, the peptides were tested in vivo using a standard glucose tolerance test (GTT).", "data": [{"smiles": "CCCCCCCCCCCCCCCCCCOCCOCCOCCOCCOCCC(=O)N[C@@H](CO)C(=O)NCCCC[C@H](NC(=O)[C@H](CO)NC(=O)[C@@H](NC(=O)[C@H](CC(=O)O)NC(=O)[C@H](CO)NC(=O)[C@@H](NC(=O)[C@H](Cc1ccccc1)NC(=O)[C@@H](NC(=O)CNC(=O)[C@H](CCC(=O)O)NC(=O)[C@H](C)NC(=O)[C@@H](N)Cc1c[nH]cn1)[C@@H](C)O)[C@@H](C)O)C(C)C)C(=O)N[C@@H](Cc1ccc(O)cc1)C(=O)N[C@@H](CC(C)C)C(=O)N[C@@H](CCC(=O)O)C(=O)NCC(=O)N[C@@H](CCC(N)=O)C(=O)N[C@@H](C)C(=O)N[C@@H](C)C(=O)N[C@@H](CCCCN)C(=O)N[C@@H](CCC(=O)O)C(=O)N[C@@H](Cc1ccccc1)C(=O)N[C@H](C(=O)N[C@@H](C)C(=O)N[C@@H](Cc1c[nH]c2ccccc12)C(=O)N[C@@H](CC(C)C)C(=O)N[C@H](C(=O)N[C@@H](CCCCN)C(=O)NCC(=O)N[C@@H](CCCNC(=N)N)C(=O)NCC(=O)O)C(C)C)[C@@H](C)CC", "note": "[Peptide G2]", "values": [{"measurement": "glucose disposal efficiency compared to unmodified GLP-1", "result": "improved glucose disposal efficiency"}]}]}
